The results in this text go back to patent publication US6339101B1, “N-linked sulfonamides of N-heterocyclic carboxylic acids or isosteres for vision and memory disorders” (GPI NIL Holdings, Inc., priority 1998, dated 2002).

Molecules are shown by their SMILES. pKi: −log10 of the molar value.

In data set [1] the test system is retinal ganglion cells and optic nerve axons. Put plainly: In vivo retinal ganglion cell and optic nerve axon tests after optic nerve transection (Table 1). Details: species or system Sprague Dawley rats. To be noted: 90 days after optic nerve transection. The source says:
All eyes and optic nerve stumps were removed.

In data set [2] the test system is retina. Nature of the data set: Streptozotocin induced diabetes, retinal neovascularization and neuron loss. The data set is classed as in vivo. The note with it: 28 day treatment beginning 8 weeks after onset of streptozotocin diabetes.
The subject of data set [3] is retinal ganglion cells. Put plainly: Example 18: optic nerve transection, ganglion cell survival and axonal dying back. The data set is classed as in vivo, Sprague Dawley rats. To be noted: 10 mg/kg/day s.c. for 28 days; 90 days after transection. The source says: Transection of the mammalian optic nerve results in a brief period of abortive regeneration, but the majority of axotomized neurons die and the axons from many persisting ganglion cells die back beyond the optic nerve head.

Data set [4] relates to retinal ganglion cells, optic nerve axons and myelin. Put plainly: Retinal ischemia by raised intraocular pressure. In kind it is in vivo, rats. The note with it: 28 days after 1 hour retinal ischemia. The source says: Retinal ganglion cells were retrogradely labeled in adult rats by bilateral injection of fluorogold in their lateral geniculate nuclei. Labeled ganglion cells in the normal rat retina appear as white profiles against the dark background (FIG. 1A). Complete retinal ischemia was produced by infusing normal saline solution into the retinal vitreous cavity of each eye until the intraocular pressure exceeded arterial blood pressure. 28 days after the ischemic episode extensive degeneration of retinal ganglion cell was evidenced by massive reduction in the density of fluorogold labeled cells (FIG. 1B).
Optic nerves from vehicle treated cases examined 28 days after a 1 hour retinal ischemia episode are characterized by a decreased density of optic nerve axons and the appearance of numerous degenerating myelin figures (bright white filled circles).

The nature of data set [5]: Morris watermaze spatial learning and memory in aged rodents. In kind it is in vivo, C57BL/6N-Nia mice. To be noted: aged impaired mice, 10 mg/kg daily, after 3 weeks of dosing; vs young mice. The source says:
The Morris watermaze is widely used for assessing spatial memory formation and retention in experimental animals. The test depends on the animal's ability to utilize spatial visual information in order to locate a submerged escape platform in a water tank. It is important that the tank itself be as devoid of specific visual features as possible—thus, it is always circular in shape, the sides are kept smooth and in uniform dull colors, and the water is rendered opaque with nontoxic watercolor pigment or powdered milk. This is to ensure that the animal navigates only by the use of more distant visual cues, or by the use of intra-maze cues specifically provided by the experimenter.
The animals' path, speed, and swim time are tracked with a ceiling camera for later computerized analysis. Over the course of several successive trials, spatial learning can therefore be defined as a drop of distance swum, or time elapsed, from placement in the tank until escape onto the invisible platform. […]
Retention testing began after 3 weeks of dosing using the same methods as the acquisition phase. Swim Distances (cm) were analyzed in a 7×5 ANOVA including Groups and Blocks (1-5) as factors in the analysis, treating Blocks as a repeated measure.

The target in data set [6] is FKBP12 (Homo sapiens, UniProt P62942). Nature of the data set: Ki test: inhibition of peptidyl-prolyl isomerase (rotamase) activity of FKBP. In kind it is biochemical. The note with it: apparent Ki; read-out: Ki rotomase.
Chain of FKBP12 (P62942 whole entry, species assumed): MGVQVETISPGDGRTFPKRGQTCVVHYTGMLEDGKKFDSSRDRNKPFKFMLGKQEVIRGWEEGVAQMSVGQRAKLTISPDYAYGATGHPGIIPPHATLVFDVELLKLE
Text: The inhibition of the prolyl peptidyl cis-trans isomerase activity of FKBP may be measured as an indicator of this affinity.
These values are obtained as apparent Ki's.
The cis-trans isomerization of an alanine-proline bond in a model substrate, N-succinyl-Ala-Ala-Pro-Phe-p-nitroanilide, is monitored spectrophotometrically in a chymotrypsin-coupled assay, which releases para-nitroanilide from the trans form of the substrate. The inhibition of this reaction caused by the addition of different concentrations of inhibitor is determined, and the data is analyzed as a change in first-order rate constant as a function of inhibitor concentration to yield the apparent Ki values.
In a plastic cuvette are added 950 ml of ice cold assay buffer (25 mM HEPES, pH 7.8, 100 nM NaCl), 10 ml of FKBP (2.5 mM in 10 mM Tris-Cl pH 7.5, 100 mM NaCl, 1 mM dithiothreitol), 25 ml of chymotrypsin (50 mg/ml in 1 mM HCl) and 10 ml of test compound at various concentrations in dimethyl sulfoxide. The reaction is initiated by the addition of 5 ml of substrate (succinyl-Ala-Phe-Pro-Phe-para-nitroanilide, 5 mg/ml in 2.35 mM LiCl in trifluoroethanol).
The absorbance at 390 nm versus time is monitored for 90 seconds using a spectrophotometer and the rate constants are determined from the absorbance versus time data files.
In data set [7] the test system is retinal ganglion cell axons. Put plainly: Protection of retinal ganglion cell axons from degeneration following optic nerve transection (Table V). The data set is classed as in vivo. To be noted: ± SEM. The source says:
Efficacy of representative compounds from different immunophilin ligand series in protecting retinal ganglion cell axons from degeneration following optic nerve transection is set forth in Table V.

The nature of data set [8]: Clearance (Table V comments). The data set is classed as in vitro ADME.

`CCC(C)(C)C(=O)C(=O)N1CCC[C@H]1C(=O)OCCCc1cccnc1` [GPI 1046]: in data set [1] (10 mg/kg/day sc for 28 days), the “RGC Counts (mean density + SEM of Fluoro-gold labeled retinal ganglion cells in 400 μm × 400 μm gridfields)” value was 67.9 ± 5.8. In data set [1] (14 days treatment), the “increased ON axon density (adjusted for optic nerve diameter)” value was determined as 1.5X. Moreover, in data set [1] (28 days treatment), the “increased ON axon density (adjusted for optic nerve diameter)” value was 5.0X. For the same compound, in data set [2], the “loss of neurons in INL and GCL” value was “appeared to decrease the loss of neurons”; the “neovascularization in PR, ONL, OPL and INL of retina” value is recorded as “reduced neovascularization”; the “neuronal loss in the ONL” value was “did not appear to protect”. In data set [3], the “ganglion cell population spared” value is listed as 25% and the “preservation of axons of protected neurons in proximal stump” value is recorded as “preserved the axons of virtually all protected neurons”. Further, the “protection of optic nerve axons from degeneration” value in data set [4] is on record as “protected the majority of optic nerve axons from degeneration”. Also, the “difference between young and aged impaired GPI-1046 treated groups, retention phase” value in data set [5] was “no longer any statistically significant difference”. In addition, in data set [6], the pKi is 8.12. Further, the “RT-RGC azon density 11 days after ON Transection ( axon rescued)” value (shortened to “RT-RGC azon density 11 days”) in data set [7] is 60.5% ±3.9 SEM.

As to `CCC(C)(C)C(=O)C(=O)N1CCCC[C@H]1C(N)=O` [H], in data set [7], the “RT-RGC azon density 11 days” value was 30.3% ±8.0% SEM.

Consider `CCC(C)(C)C(=O)C(=O)N1CCCC[C@H]1C(=O)O` [G], for which, in data set [7], the “RT-RGC azon density 11 days” value is recorded as 34.0% ±4.8% SEM.

Regarding `CCC(C)(C)C(=O)C(=O)N1CCS[C@H]1C(=O)OCCCc1cccnc1` [F], the “RT-RGC azon density 11 days” value in data set [7] is on record as 55.1% ±5.9% SEM.

Take `O=C(SCCCc1ccccc1)[C@@H]1CCCN1S(=O)(=O)Cc1ccccc1` [C]: the “RT-RGC azon density 11 days” value in data set [7] was 60.4% ±3.1% SEM.

As for `O=C(SCCCc1ccccc1)C1CCCN1C(=O)NC12CC3CC(CC(C3)C1)C2` (stereo not shown) [B], the “RT-RGC azon density 11 days” value in data set [7] is given as 100.0% ±5.2% SEM.

As for `CCC(C)(C)C(=O)C(=O)N1CCCC[C@H]1C(=O)SC(CCc1ccccc1)CCc1ccccc1` [E], the Clearance in data set [8] amounted to 41.8 µL/min. Also, the negative logarithm of the Ki (pKi) in data set [6] was 7.70. Moreover, in data set [7], the “RT-RGC azon density 11 days” value is reported as 56.6% ±9.4% SEM.

`O=C(OCCCCc1ccccc1)[C@@H]1CCCCN1S(=O)(=O)Cc1ccccc1` [D]: the “RT-RGC azon density 11 days” value in data set [7] is recorded as 58.4% ±6.4% SEM.

As for `CCC(C)(C)C(=O)C(=O)N1CCC[C@H]1C(=O)CCCCc1cccnc1` [J], the “RT-RGC azon density 11 days” value in data set [7] is recorded as 15.8% ±4.8% SEM.

As to `CCC(C)(C)C(=O)C(=O)N1CCCC[C@H]1C(=O)SCCC(c1ccccc1)c1ccccc1` [K], the “RT-RGC azon density 11 days” value in data set [7] is given as 13.0% ±4.2% SEM.

Regarding `CCC(C)(C)C(=O)C(=O)N1CCC[C@H]1C(=O)O` [L], the “RT-RGC azon density 11 days” value in data set [7] is listed as 7.8% ±3.0% SEM.

On to `CCC(C)(C)C(=O)C(=O)N1CCC[C@H]1C(=O)SCCC(c1ccccc1)c1ccccc1` [M], for which the “RT-RGC azon density 11 days” value in data set [7] was −6.3% +3.9% SEM.
